{
  "source": "patent US20080221132A1",
  "about": "“Multi-Functional Small Molecules as Anti-Proliferative Agents” (priority 2006, published 2008)",
  "key": {"[1]": {"tested_on": "Breast_MCF7 (MCF-7, breast adenocarcinoma)", "assay": "Cell proliferation assay (ATPlite), MCF7", "assay_type": "cell-based", "settings": "Homo sapiens, TABLE C, 72 hours, 0.5% fetal bovine serum, ATP content, read-out: IC50 grading, Breast_MCF7", "description": "(§1) A representative number of compounds were assayed against several different cell lines using the cell proliferation assay:\n(§2) Cell Proliferation Assay:\n(§3) Cancer cell lines were plated at 5,000 to 10,000 per well in 96-well flatted bottomed plates with various concentration of compounds. […] Growth inhibition was accessed by adenosine triphosphate (ATP) content assay using Perkin Elmer ATPlite kit. ATPlite is an ATP monitoring system based on firefly luciferase. Briefly, 25 μl of mammalian cell lysis solution was added to 50 μl of phenol red-free culture medium per well to lyse the cells and stabilize the ATP. 25 μl of substrate solution was then added to the well and subsequently the luminescence was measured."}, "[2]": {"tested_on": "Breast_MDAMB468 (MDA-MB-468, breast adenocarcinoma)", "assay": "Cell proliferation assay (ATPlite), MDA-MB-468", "assay_type": "cell-based", "settings": "Homo sapiens, TABLE C, 72 hours, 0.5% fetal bovine serum, ATP content, read-out: IC50 grading, Breast_MDAMB468", "description": "as §1, §2, §3"}, "[3]": {"tested_on": "Epidermoid_A431 (A431, epidermoid carcinoma)", "assay": "Cell proliferation assay (ATPlite), A431", "assay_type": "cell-based", "settings": "Homo sapiens, A-431", "description": "as §1, §2, §3"}, "Lung_H1703": {"tested_on": "Lung_H1703", "assay": "Cell proliferation assay (ATPlite), H1703", "assay_type": "cell-based", "settings": "Homo sapiens, NCI-H1703; TABLE C; 72 hours, 0.5% fetal bovine serum, ATP content; read-out: IC50 grading, Lung_H1703", "description": "as §1, §2\n(§4) Cancer cell lines were plated at 5,000 to 10,000 per well in 96-well flatted bottomed plates with various concentration of compounds. The cells were incubated with compounds for 72 hours in the presence of 0.5% of fetal bovine serum. Growth inhibition was accessed by adenosine triphosphate (ATP) content assay using Perkin Elmer ATPlite kit. ATPlite is an ATP monitoring system based on firefly luciferase. Briefly, 25 μl of mammalian cell lysis solution was added to 50 μl of phenol red-free culture medium per well to lyse the cells and stabilize the ATP. 25 μl of substrate solution was then added to the well and subsequently the luminescence was measured."}, "Lung_H1975": {"tested_on": "Lung_H1975", "assay": "Cell proliferation assay (ATPlite), H1975", "assay_type": "cell-based", "settings": "Homo sapiens, NCI-H1975; TABLE C; 72 hours, 0.5% fetal bovine serum, ATP content; read-out: IC50 grading, Lung_H1975", "description": "as §1, §2, §4"}, "Lung_H292": {"tested_on": "Lung_H292", "assay": "Cell proliferation assay (ATPlite), H292", "assay_type": "cell-based", "settings": "Homo sapiens, NCI-H292; TABLE C; 72 hours, 0.5% fetal bovine serum, ATP content; read-out: IC50 grading, Lung_H292", "description": "as §1, §2, §4"}, "Lung_H358": {"tested_on": "Lung_H358", "assay": "Cell proliferation assay (ATPlite), H358", "assay_type": "cell-based", "settings": "Homo sapiens, NCI-H358; TABLE C; 72 hours, 0.5% fetal bovine serum, ATP content; read-out: IC50 grading, Lung_H358", "description": "as §1, §2, §4"}, "Pancreas_BxPC3": {"tested_on": "Pancreas_BxPC3", "assay": "Cell proliferation assay (ATPlite), BxPC3", "assay_type": "cell-based", "settings": "Homo sapiens, BXPC-3; TABLE C; 72 hours, 0.5% fetal bovine serum, ATP content; read-out: IC50 grading, Pancreas_BxPC3", "description": "as §1, §2, §4"}, "Pancreas_CFPAC": {"tested_on": "Pancreas_CFPAC", "assay": "Cell proliferation assay (ATPlite), CFPAC", "assay_type": "cell-based", "settings": "TABLE C; 72 hours, 0.5% fetal bovine serum, ATP content; read-out: IC50 grading, Pancreas_CFPAC", "description": "as §1, §2, §4"}, "Pancreas_MiaPaCa2": {"tested_on": "Pancreas_MiaPaCa2", "assay": "Cell proliferation assay (ATPlite), MiaPaCa2", "assay_type": "cell-based", "settings": "Homo sapiens, MIA PaCa-2; TABLE C; 72 hours, 0.5% fetal bovine serum, ATP content; read-out: IC50 grading, Pancreas_MiaPaCa2", "description": "as §1, §2, §4"}, "Pancreas_PANC1": {"tested_on": "Pancreas_PANC1", "assay": "Cell proliferation assay (ATPlite), PANC1", "assay_type": "cell-based", "settings": "Homo sapiens, PANC-1; TABLE C; 72 hours, 0.5% fetal bovine serum, ATP content; read-out: IC50 grading, Pancreas_PANC1", "description": "as §1, §2, §4"}, "[4]": {"tested_on": "Prostate_22RV1 (22RV1, prostate carcinoma)", "assay": "Cell proliferation assay (ATPlite), 22RV1", "assay_type": "cell-based", "settings": "Homo sapiens", "description": "as §1, §2, §3"}, "[5]": {"tested_on": "Prostate_PC3 (PC-3, prostate adenocarcinoma)", "assay": "Cell proliferation assay (ATPlite), PC3", "assay_type": "cell-based", "description": "as §1, §2, §3"}, "Abl Kinase": {"biological_target": "Abl Kinase (Homo sapiens, UniProt P00519)", "assay": "Kinase panel (TABLE F), Abl Kinase", "assay_type": "biochemical"}, "FGFR2 Kinase": {"biological_target": "FGFR2 Kinase (Homo sapiens, UniProt P21802)", "sequence (P21802 22-821)": "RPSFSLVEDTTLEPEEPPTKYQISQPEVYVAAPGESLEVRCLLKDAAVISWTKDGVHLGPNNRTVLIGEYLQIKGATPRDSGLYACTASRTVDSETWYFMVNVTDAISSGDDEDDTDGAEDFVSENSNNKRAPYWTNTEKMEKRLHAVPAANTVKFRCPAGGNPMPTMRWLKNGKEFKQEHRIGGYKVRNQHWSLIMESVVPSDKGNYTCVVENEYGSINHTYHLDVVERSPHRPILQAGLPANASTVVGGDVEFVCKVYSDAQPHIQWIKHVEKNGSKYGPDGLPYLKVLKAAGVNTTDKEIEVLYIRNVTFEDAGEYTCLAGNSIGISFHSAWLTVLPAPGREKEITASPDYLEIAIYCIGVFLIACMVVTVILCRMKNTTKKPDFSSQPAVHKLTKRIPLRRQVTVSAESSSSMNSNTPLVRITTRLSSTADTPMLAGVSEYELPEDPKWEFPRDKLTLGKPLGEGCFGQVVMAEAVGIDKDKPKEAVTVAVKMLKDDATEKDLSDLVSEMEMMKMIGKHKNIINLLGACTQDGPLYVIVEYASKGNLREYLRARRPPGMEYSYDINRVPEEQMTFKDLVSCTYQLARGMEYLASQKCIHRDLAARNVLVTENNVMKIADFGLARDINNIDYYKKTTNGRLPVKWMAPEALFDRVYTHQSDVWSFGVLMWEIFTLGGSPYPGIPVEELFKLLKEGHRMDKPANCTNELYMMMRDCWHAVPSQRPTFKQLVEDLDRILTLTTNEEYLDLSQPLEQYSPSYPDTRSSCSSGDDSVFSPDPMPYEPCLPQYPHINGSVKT", "assay": "Kinase panel (TABLE F), FGFR2 Kinase", "assay_type": "biochemical"}, "FLT-3 Kinase": {"biological_target": "FLT-3 Kinase (Homo sapiens, UniProt P36888)", "sequence (P36888 27-993)": "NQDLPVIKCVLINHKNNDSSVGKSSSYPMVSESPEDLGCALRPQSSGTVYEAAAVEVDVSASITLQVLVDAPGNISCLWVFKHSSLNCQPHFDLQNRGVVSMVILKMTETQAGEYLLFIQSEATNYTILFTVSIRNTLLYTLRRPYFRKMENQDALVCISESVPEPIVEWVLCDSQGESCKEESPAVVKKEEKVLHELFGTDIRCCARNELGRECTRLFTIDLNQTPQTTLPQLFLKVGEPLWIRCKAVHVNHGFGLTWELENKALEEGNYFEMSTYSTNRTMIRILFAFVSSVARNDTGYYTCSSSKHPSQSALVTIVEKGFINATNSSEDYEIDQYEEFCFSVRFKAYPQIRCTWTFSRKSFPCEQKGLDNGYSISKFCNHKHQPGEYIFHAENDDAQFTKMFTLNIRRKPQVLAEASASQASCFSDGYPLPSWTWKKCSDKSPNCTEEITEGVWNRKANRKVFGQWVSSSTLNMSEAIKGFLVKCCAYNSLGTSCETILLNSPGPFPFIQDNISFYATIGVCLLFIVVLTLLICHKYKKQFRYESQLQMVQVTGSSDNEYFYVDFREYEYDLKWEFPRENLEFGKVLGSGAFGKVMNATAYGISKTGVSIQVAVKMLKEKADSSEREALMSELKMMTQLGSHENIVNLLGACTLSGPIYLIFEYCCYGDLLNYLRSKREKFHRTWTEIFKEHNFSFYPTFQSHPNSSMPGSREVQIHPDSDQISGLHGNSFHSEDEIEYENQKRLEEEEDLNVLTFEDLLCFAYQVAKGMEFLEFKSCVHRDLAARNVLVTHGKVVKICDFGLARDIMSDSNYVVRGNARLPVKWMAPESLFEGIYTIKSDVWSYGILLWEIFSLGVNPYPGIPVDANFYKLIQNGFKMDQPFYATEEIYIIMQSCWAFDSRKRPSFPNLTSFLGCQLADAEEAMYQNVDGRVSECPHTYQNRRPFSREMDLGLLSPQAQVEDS", "assay": "Kinase panel (TABLE F), FLT-3 Kinase", "assay_type": "biochemical"}, "VEGFR2 Kinase": {"biological_target": "VEGFR2 Kinase (Homo sapiens, UniProt P35968)", "sequence (P35968 20-1356)": "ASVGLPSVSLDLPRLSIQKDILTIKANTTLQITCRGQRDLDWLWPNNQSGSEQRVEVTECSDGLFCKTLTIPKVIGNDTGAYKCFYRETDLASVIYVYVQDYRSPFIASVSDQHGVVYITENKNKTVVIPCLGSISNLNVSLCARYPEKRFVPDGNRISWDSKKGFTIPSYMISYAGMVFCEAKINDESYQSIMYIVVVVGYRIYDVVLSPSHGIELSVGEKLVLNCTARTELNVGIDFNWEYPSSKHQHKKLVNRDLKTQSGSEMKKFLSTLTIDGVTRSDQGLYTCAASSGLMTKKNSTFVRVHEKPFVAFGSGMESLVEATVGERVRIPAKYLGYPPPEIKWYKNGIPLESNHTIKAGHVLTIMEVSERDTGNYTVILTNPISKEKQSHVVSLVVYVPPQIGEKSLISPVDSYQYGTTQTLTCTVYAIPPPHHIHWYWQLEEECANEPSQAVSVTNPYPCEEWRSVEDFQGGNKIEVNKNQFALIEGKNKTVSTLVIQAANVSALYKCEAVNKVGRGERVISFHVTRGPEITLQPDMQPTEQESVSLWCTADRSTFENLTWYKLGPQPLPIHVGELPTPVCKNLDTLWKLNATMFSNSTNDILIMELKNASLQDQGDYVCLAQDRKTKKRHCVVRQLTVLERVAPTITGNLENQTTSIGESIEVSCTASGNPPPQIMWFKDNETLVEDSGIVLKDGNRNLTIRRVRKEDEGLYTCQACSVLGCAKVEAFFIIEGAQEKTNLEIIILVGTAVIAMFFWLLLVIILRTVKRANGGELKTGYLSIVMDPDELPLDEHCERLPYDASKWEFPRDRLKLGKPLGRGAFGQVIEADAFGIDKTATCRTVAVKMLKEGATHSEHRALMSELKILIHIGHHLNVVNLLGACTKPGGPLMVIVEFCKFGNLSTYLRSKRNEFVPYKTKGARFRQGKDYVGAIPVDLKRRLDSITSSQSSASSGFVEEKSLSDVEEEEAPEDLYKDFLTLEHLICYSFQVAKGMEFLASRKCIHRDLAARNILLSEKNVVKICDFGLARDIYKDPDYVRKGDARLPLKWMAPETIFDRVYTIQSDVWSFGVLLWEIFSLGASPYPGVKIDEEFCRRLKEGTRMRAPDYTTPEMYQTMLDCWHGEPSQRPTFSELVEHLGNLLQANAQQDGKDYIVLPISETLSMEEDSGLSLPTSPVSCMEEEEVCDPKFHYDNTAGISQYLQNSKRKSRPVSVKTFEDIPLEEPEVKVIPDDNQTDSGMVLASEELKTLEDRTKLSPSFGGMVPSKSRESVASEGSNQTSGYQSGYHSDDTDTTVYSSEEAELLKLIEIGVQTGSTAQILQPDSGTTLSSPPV", "assay": "Kinase panel (TABLE F), VEGFR2 Kinase", "assay_type": "biochemical"}, "Lck Kinase": {"biological_target": "Lck Kinase (Homo sapiens, UniProt P06239)", "sequence (P06239 whole entry)": "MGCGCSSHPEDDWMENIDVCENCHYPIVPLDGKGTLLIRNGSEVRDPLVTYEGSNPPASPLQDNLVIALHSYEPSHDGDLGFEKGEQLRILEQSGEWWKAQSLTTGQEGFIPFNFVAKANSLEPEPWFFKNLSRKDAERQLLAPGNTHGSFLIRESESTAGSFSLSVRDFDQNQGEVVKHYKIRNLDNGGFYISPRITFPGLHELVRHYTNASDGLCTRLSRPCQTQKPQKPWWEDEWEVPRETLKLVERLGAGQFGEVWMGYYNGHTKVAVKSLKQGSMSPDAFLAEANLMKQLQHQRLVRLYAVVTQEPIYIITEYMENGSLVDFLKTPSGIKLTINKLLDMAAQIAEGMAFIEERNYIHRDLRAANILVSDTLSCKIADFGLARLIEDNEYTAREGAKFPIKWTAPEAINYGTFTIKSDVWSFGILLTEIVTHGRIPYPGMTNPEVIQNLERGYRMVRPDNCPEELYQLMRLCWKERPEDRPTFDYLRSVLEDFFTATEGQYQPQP", "assay": "Kinase panel (TABLE F), Lck Kinase", "assay_type": "biochemical"}, "Lyn Kinase": {"biological_target": "Lyn Kinase (Homo sapiens, UniProt P07948)", "sequence (P07948 whole entry)": "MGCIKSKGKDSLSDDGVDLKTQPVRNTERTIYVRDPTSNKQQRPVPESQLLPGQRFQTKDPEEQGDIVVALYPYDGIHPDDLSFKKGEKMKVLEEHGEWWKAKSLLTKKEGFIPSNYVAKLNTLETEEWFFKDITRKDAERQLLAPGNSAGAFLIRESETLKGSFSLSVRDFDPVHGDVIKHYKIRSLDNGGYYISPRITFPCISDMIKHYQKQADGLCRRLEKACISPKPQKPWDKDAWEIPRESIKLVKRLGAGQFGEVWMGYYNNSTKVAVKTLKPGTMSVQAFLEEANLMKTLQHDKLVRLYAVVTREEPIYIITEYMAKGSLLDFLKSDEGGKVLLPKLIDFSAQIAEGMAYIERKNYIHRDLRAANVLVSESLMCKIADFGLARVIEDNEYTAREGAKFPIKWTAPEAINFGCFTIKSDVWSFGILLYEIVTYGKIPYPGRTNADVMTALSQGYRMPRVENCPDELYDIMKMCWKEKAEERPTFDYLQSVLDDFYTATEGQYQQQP", "assay": "Kinase panel (TABLE F), Lyn Kinase", "assay_type": "biochemical"}, "in vivo": {"assay": "in vivo", "settings": "male, CD-1, mouse, ip; for AUC: AUC (h * ng/ml)", "description": "Drug Preparation and Administration.\nBlood and tissue Sample Collection.\nPlasma Sample Extraction. Plasma samples were prepared by protein precipitation. An internal standard was added into plasma samples. […] The supernatant was then injected onto LC/MS/MS.\nSamples were compared to standards made in plasma. These standards were prepared by serial dilution.\nTissue Sample Extraction. […] Tissues were homogenized in 0.8 ml water. An internal standard was added into the tissue homogenates.\nLC/MS/MS Analytical Methods.\nLC Conditions are shown below:"}, "[6]": {"settings": "male, CD-1, mouse, in vivo, iv, 9 day", "experimental": "Single dosing MTD in mice • a. CD-1 mice, male, 24-26 gram • b. Dosing at 0, 50, 100, 200, 400 mg/kg, iv infusion 2 min • c. 8 mice per group\n(§5) Stock solution is diluted with 30% CAPTISOL before use."}, "[7]": {"settings": "male, CD-1, mouse, in vivo, ip, 7 days", "experimental": "7-day-multiple dosing MTD in mice • a. CD-1 mice, male, 24-26 gram • b. Dosing at 0, 50, 100, 200 mg/kg/d ip • c. 6 mice per group • d. Blood and organs will be collected 2 hr after last dosing on Day 7 for hematology\nas §5"}},
  "note": "Where two headings read alike, the source gives them in different places.",
  "data": [
    {"molecule": "C#Cc1cccc(Nc2ncnc3cc(OC)c(OCCCCCCC(=O)NO)cc23)c1", "note": "[Compound 12]", "values": [
      {"measurement": "IC50", "setting": "[1]", "result": "< 100", "unit": "nM"},
      {"measurement": "IC50", "setting": "[2]", "result": "< 100", "unit": "nM"},
      {"measurement": "IC50", "setting": "[3]; TABLE C, 72 hours, 0.5% fetal bovine serum, ATP content, read-out: IC50 grading, Epidermoid_A431", "result": "100 to 1000", "unit": "nM"},
      {"measurement": "IC50", "setting": "[3]; TABLE D, Epidermoid carcinoma, read-out: IC50 grading, A431", "result": "50 to 500", "unit": "nM"},
      {"measurement": "IC50", "setting": "Lung_H1703", "result": "100 to 1000", "unit": "nM"},
      {"measurement": "IC50", "setting": "Lung_H1975", "result": "100 to 1000", "unit": "nM"},
      {"measurement": "IC50", "setting": "Lung_H292", "result": "< 100", "unit": "nM"},
      {"measurement": "IC50", "setting": "Lung_H358", "result": "100 to 1000", "unit": "nM"},
      {"measurement": "IC50", "setting": "Pancreas_BxPC3", "result": "< 100", "unit": "nM"},
      {"measurement": "IC50", "setting": "Pancreas_CFPAC", "result": "100 to 1000", "unit": "nM"},
      {"measurement": "IC50", "setting": "Pancreas_MiaPaCa2", "result": "100 to 1000", "unit": "nM"},
      {"measurement": "IC50", "setting": "Pancreas_PANC1", "result": "100 to 1000", "unit": "nM"},
      {"measurement": "IC50", "setting": "[4]; TABLE C, 72 hours, 0.5% fetal bovine serum, ATP content, read-out: IC50 grading, Prostate_22RV1", "result": "100 to 1000", "unit": "nM"},
      {"measurement": "IC50", "setting": "[4]; TABLE D, Prostate carcinoma, read-out: IC50 grading, 22RV1", "result": "50 to 500", "unit": "nM"},
      {"measurement": "IC50", "setting": "[5]; TABLE C, 72 hours, 0.5% fetal bovine serum, ATP content, read-out: IC50 grading, Prostate_PC3", "result": "100 to 1000", "unit": "nM"},
      {"measurement": "IC50", "setting": "[5]; TABLE D, Prostate adenocarcinoma, read-out: IC50 grading, PC-3", "result": "500 to 5000", "unit": "nM"},
      {"measurement": "inhibition at 5 µM", "setting": "Abl Kinase", "result": 57, "unit": "%"},
      {"measurement": "inhibition at 5 µM", "setting": "FGFR2 Kinase", "result": 73, "unit": "%"},
      {"measurement": "inhibition at 5 µM", "setting": "FLT-3 Kinase", "result": 85, "unit": "%"},
      {"measurement": "inhibition at 5 µM", "setting": "VEGFR2 Kinase", "result": 64, "unit": "%"},
      {"measurement": "inhibition at 5 µM", "setting": "Lck Kinase", "result": 56, "unit": "%"},
      {"measurement": "inhibition at 5 µM", "setting": "Lyn Kinase", "result": 95, "unit": "%"},
      {"measurement": "AUC", "setting": "in vivo; 20 mg/kg", "result": 3750, "unit": "ng·h/mL"},
      {"measurement": "AUC", "setting": "in vivo; 60 mg/kg", "result": 5720, "unit": "ng·h/mL"},
      {"measurement": "Cmax", "setting": "in vivo; 60 mg/kg, Cmax (uM)", "result": 14.4, "unit": "µM"},
      {"measurement": "dose without significant change in body weight", "setting": "[6]", "result": "up to 200 mg/kg"},
      {"measurement": "dose without significant change in body weight", "setting": "[7]", "result": "up to 100 mg/kg"}
    ]}
  ]
}
